How the values were obtained:
BCDIN3D [1] = target: T1, BCDIN3D (Homo sapiens, UniProt Q7Z5W3); assay: BCDIN3D IC50 RFMS (RapidFire) assay with mini-helix; assay type: biochemical; settings: mini-helix substrate 0.2 μM, SAM 6 μM, 25 nM enzyme
T1 sequence (Q7Z5W3 1-292): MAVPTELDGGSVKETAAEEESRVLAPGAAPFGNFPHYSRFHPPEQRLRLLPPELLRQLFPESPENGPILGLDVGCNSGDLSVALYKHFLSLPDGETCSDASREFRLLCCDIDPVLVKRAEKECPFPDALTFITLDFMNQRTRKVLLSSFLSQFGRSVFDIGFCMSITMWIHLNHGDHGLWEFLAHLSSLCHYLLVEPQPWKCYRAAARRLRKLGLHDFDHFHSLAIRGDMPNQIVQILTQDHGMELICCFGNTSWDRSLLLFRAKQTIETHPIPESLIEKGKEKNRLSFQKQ
Summary of the method: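 SAH formation was measured by RapidFire mass spectrometry with D4- and 13C10-SAH internal standards after TCA quench. Substrates 6 μM SAM and 0.2 μM mini-helix reacted 1 h at 37 °C with 25 nM enzyme, which had been preincubated 10 min with compound (1% DMSO) in Tris pH 8.0 buffer with DTT, EDTA, BSA.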

BCDIN3D [2] = target: T1, BCDIN3D; assay: BCDIN3D InCellPulse thermal stability assay in transfected A549 cells; assay type: cell-based; settings: transiently transfected A549 cells, heat shock 58° C. 15 min
Summary of the method: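 Thermal stabilisation read-out: after a 15 min 58 °C heat shock, ePL-tagged BCDIN3D in transiently transfected A549 cells (1500/well) was quantified by enzyme-fragment complementation luminescence. Compounds were pre-incubated with cells 1 h at 37 °C, 0.6% DMSO final.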

SMILES	IC50 (BCDIN3D [1]) [nM]	IC50 (BCDIN3D [2]) [nM]
[2H]C([2H])([2H])n1ncc2c(Nc3ccc(C(F)(F)F)cc3)nc(NC[C@H](N)c3ccccc3)nc21 [Compound 4.24, N6-[(2R)-2-amino-2-phenyl-ethyl]-1-(trideuteriomethyl)-N4-[4-(trifluoromethyl)phenyl]pyrazolo[3,4-d]pyrimidine-4,6-diamine]	13.9	14.4
Cn1ncc2c(Nc3ccc(C(F)(F)F)nc3)nc(NCC(N)c3ccccc3)nc21 (centres unmarked) [Compound 4.25, 6-N-(2-amino-2-phenylethyl)-1-methyl-4-N-[6-(trifluoromethyl)pyridin-3-yl]pyrazolo[3,4-d]pyrimidine-4,6-diamine]	50.7	319
Cn1ncc2c(Nc3ccc(C(F)(F)F)nc3)nc(NCC(C)(N)c3ccccc3)nc21 (centres unmarked) [Compound 4.26, 6-N-(2-amino-2-phenylpropyl)-1-methyl-4-N-[6-(trifluoromethyl)pyridin-3-yl]pyrazolo[3,4-d]pyrimidine-4,6-diamine]	21.7	384
[2H]C([2H])([2H])n1ncc2c(Nc3ccc(C(F)(F)F)nc3)nc(NCC(C)(N)c3ccccc3)nc21 (centres unmarked) [Compound 4.27, N6-(2-amino-2-phenyl-propyl)-1-(trideuteriomethyl)-N4-[6-(trifluoromethyl)-3-pyridyl]pyrazolo[3,4-d]pyrimidine-4,6-diamine]	46.6	610
Cn1ncc2c(Nc3ccc(OC(F)F)nc3)nc(NCC(N)c3ccccc3)nc21 (centres unmarked) [Compound 4.28, N6-(2-amino-2-phenyl-ethyl)-N4-[6-(difluoromethoxy)-3-pyridyl]-1-methyl-pyrazolo[3,4-d]pyrimidine-4,6-diamine]	149	318
Cn1ncc2c(Nc3ccc(OC(F)F)nc3)nc(NCC(C)(N)c3ccccc3)nc21 (centres unmarked) [Compound 4.29, N6-(2-amino-2-phenyl-propyl)-N4-[6-(difluoromethoxy)-3-pyridyl]-1-methyl-pyrazolo[3,4-d]pyrimidine-4,6-diamine]	116	525
Cn1ncc2c(Nc3ccc(Cl)cc3)nc(NC[C@H](N)c3ccccc3)nc21 [Compound 4.30, N6-[(2R)-2-amino-2-phenyl-ethyl]-N4-(4-chlorophenyl)-1-methyl-pyrazolo[3,4-d]pyrimidine-4,6-diamine]	28.6	62.6
Cn1ncc2c(Nc3ccc(Cl)cc3)nc(NC[C@@H](N)c3ccccc3)nc21 [Compound 4.31, N6-[(2S)-2-amino-2-phenyl-ethyl]-N4-(4-chlorophenyl)-1-methyl-pyrazolo[3,4-d]pyrimidine-4,6-diamine]	7390	60000
COc1ccc(Nc2nc(NC[C@H](N)c3ccccc3)nc3c2cnn3C)cc1 [Compound 4.32, N6-[(2R)-2-amino-2-phenyl-ethyl]-N4-(4-methoxyphenyl)-1-methyl-pyrazolo[3,4-d]pyrimidine-4,6-diamine]	95.8	140
CC(C)Oc1ccc(Nc2nc(NC[C@H](N)c3ccccc3)nc3c2cnn3C)cc1 [Compound 4.33, N6-[(2R)-2-amino-2-phenyl-ethyl]-N4-(4-isopropoxyphenyl)-1-methyl-pyrazolo[3,4-d]pyrimidine-4,6-diamine]	64.4	38
Cn1ncc2c(Nc3ccc(F)c(F)c3)nc(NC[C@H](N)c3ccccc3)nc21 [Compound 4.34, N6-[(2R)-2-amino-2-phenyl-ethyl]-N4-(3,4-difluorophenyl)-1-methyl-pyrazolo[3,4-d]pyrimidine-4,6-diamine]	118	162
CN(C)c1ccc(Nc2nc(NC[C@H](N)c3ccccc3)nc3c2cnn3C)cc1 [Compound 4.35, N6-[(2R)-2-amino-2-phenyl-ethyl]-N4-[4-(dimethylamino)phenyl]-1-methyl-pyrazolo[3,4-d]pyrimidine-4,6-diamine]	143	141
CNc1nc(NCC(N)c2ccccc2)nc2c1cnn2C (centres unmarked) [Compound 4.36, 6-N-(2-amino-2-phenylethyl)-4-N,1-dimethylpyrazolo[3,4-d]pyrimidine-4,6-diamine]	554	1860
[2H]C([2H])([2H])n1ncc2c(NC)nc(NCC(N)c3ccccc3)nc21 (centres unmarked) [Compound 4.38, 6-N-(2-amino-2-phenylethyl)-4-N-methyl-1-(trideuteriomethyl)pyrazolo[3,4-d]pyrimidine-4,6-diamine]	8100	9560
CNc1nc(NCC(C)(N)c2ccccc2)nc2c1cnn2C (centres unmarked) [Compound 4.39, 6-N-(2-amino-2-phenylpropyl)-4-N,1-dimethylpyrazolo[3,4-d]pyrimidine-4,6-diamine]	9170	17100
CNc1nc(NC[C@H](N)c2ccccc2)nc2c1cnn2C [Compound 4.40, 6-N-[(2R)-2-amino-2-phenylethyl]-4-N,1-dimethylpyrazolo[3,4-d]pyrimidine-4,6-diamine]	3630	4790
CCNc1nc(NCC(N)c2ccccc2)nc2c1cnn2C (centres unmarked) [Compound 4.41, 6-N-(2-amino-2-phenylethyl)-4-N-ethyl-1-methylpyrazolo[3,4-d]pyrimidine-4,6-diamine]	945	3330
CCN(C)c1nc(NCC(N)c2ccccc2)nc2c1cnn2C (centres unmarked) [Compound 4.42, 6-N-(2-amino-2-phenylethyl)-4-N-ethyl-4-N,1-dimethylpyrazolo[3,4-d]pyrimidine-4,6-diamine]	2280	7570
Cn1ncc2c(NC3CC3)nc(NCC(N)c3ccccc3)nc21 (centres unmarked) [Compound 4.43, 6-N-(2-amino-2-phenylethyl)-4-N-cyclopropyl-1-methylpyrazolo[3,4-d]pyrimidine-4,6-diamine]	2560	4200
Cn1ncc2c(NCC(F)(F)F)nc(NCC(N)c3ccccc3)nc21 (centres unmarked) [Compound 4.44, 6-N-(2-amino-2-phenylethyl)-1-methyl-4-N-(2,2,2-trifluoroethyl)pyrazolo[3,4-d]pyrimidine-4,6-diamine]	527	992
Cn1ncc2c(NCC(F)(F)F)nc(NC[C@H](N)c3ccccc3)nc21 [Compound 4.45, N6-[(2R)-2-amino-2-phenyl-ethyl]-1-methyl-N4-(2,2,2-trifluoroethyl)pyrazolo[3,4-d]pyrimidine-4,6-diamine]	316	414
CC(C)Nc1nc(NCC(N)c2ccccc2)nc2c1cnn2C (centres unmarked) [Compound 4.46, 6-N-(2-amino-2-phenylethyl)-1-methyl-4-N-propan-2-ylpyrazolo[3,4-d]pyrimidine-4,6-diamine]	501	1130
CC(C)Nc1nc(NC[C@H](N)c2ccccc2)nc2c1cnn2C [Compound 4.47, 6-N-[(2R)-2-amino-2-phenylethyl]-1-methyl-4-N-propan-2-ylpyrazolo[3,4-d]pyrimidine-4,6-diamine]	253	667
Cn1ncc2c(N3CCCC3)nc(NCC(N)c3ccccc3)nc21 (centres unmarked) [Compound 4.48, N′-(1-methyl-4-pyrrolidin-1-ylpyrazolo[3,4-d]pyrimidin-6-yl)-1-phenylethane-1,2-diamine]	3860	7400
COCCNc1nc(NCC(N)c2ccccc2)nc2c1cnn2C (centres unmarked) [Compound 4.49, 6-N-(2-amino-2-phenylethyl)-4-N-(2-methoxyethyl)-1-methylpyrazolo[3,4-d]pyrimidine-4,6-diamine]	3390	6060
